Results from patent US20260083750A1, “SMALL MOLECULE INHIBITORS OF KRAS PROTEINS” (MERCK SHARP & DOHME LLC, priority 2022, published 2026).

How the values were obtained:
KRAS-G12D = biological target: T1, KRAS-G12D (Homo sapiens, UniProt P01116, G12D); test: SOS-catalyzed nucleotide exchange assay (Procedure A, TR-FRET); format: biochemical; settings: 60 min preincubation, SOS + GTP, read-out: KRAS G12D GNE IC50
T1 construct: N-terminal biotin-acceptor peptide […]
Source text: (§1) Procedure for SOS-Catalyzed Nucleotide Exchange Assay for KRAS-G12C/D/V, G13D, HRAS, and NRAS (Procedure A)
(§2) Recombinant KRAS-G12C protein used in this assay has an additional triple mutation (C51S/C80L/C118S), whereas KRAS-G12D/V, G13D, HRAS and NRAS are in context of their WT protein sequence background. Specifically, the SOS-catalyzed nucleotide exchange assay utilizes a preformed TR-FRET complex containing a specific biotinylated RAS protein (KRAS-G12C/V/D, G13D, HRAS, NRAS; described above) with Bodipy-GDP, and Terbium-streptavidin. Compounds are preincubated with this complex for 60 minutes. Subsequently, recombinant human SOS protein and unlabeled GTP are added to initiate the exchange reaction. Small molecule inhibitors stabilize the Bodipy-GDP complex whereas the untreated protein rapidly exchanges Bodipy-GDP for unlabeled GTP resulting in reduced TR-FRET signal.
(§3) To assemble the preformed TR-FRET complexes, each biotinylated RAS protein is diluted to 2 μM in an EDTA Buffer (20 mM HEPES pH 7.5, 50 mM sodium chloride, 10 mM EDTA, and 0.01% Tween) and incubated at room temperature for one hour. This mixture is then further diluted to 90 nM in an Assay Buffer (20 mM HEPES pH 7.5, 150 mM sodium chloride, 10 mM magnesium chloride, and 0.005% Tween) containing 15 nM of Terbium-Streptavidin (Invitrogen, catalog #PV3577) and 900 nM of Bodipy-GDP (Invitrogen, catalog #G22360) and incubated at room temperature for six hours. It should be noted that this preformed TR-FRET complex for each of the RAS protein were made ahead of time, aliquoted and stored at −80° C. until the day of the experiment.
(§4) Each test compound (10 mM stock in DMSO) is diluted in DMSO to make a final-10-point, 3-fold dilution and is acoustically dispensed into a 384-well assay plate (Corning, catalog #3820) using an Echo 550 (Labcyte). Each well of the assay plate receives 3 μL of a specific 3× RAS preformed TR-FRET complex and 3 μL of Assay Buffer and is incubated at room temperature for 60 minutes (preincubation time). Each well then receives 3 μL of 3× recombinant human SOS protein and GTP (Sigma, G8877) in Assay Buffer and is incubated at room temperature for 30 minutes (G13D), 60 minutes (G12C/D, H/NRAS) or 90 minutes for G12V. The final reaction in each well of […] consists of 3 mM GTP, specific Ras and SOS proteins in the following concentrations: KRAS-G12C/SOS=3 nM/40 nM, KRAS-G12D/SOS=1 nM/40 nM, KRAS-G12V/SOS=1.25 nM/160 nM, KRAS-G13D/SOS=1.25 nM/0 nM, HRAS & NRAS=1.25 nM/40 nM.
(§5) The time-resolved fluorescence resonance energy transfer (TR-FRET) signal is measured on an Envision (PerkinElmer) plate reader: Excitation filter=340 nm; emission1=495 nm; emission2=520 nm; dichroic mirror=D400/D505; delay time=[…]. The signal of each well is determined as the ratio of the emission at 520 nm to that at 495 nm. […] The apparent effect as a function of compound concentration is fit to a four-parameter logistic equation.

KRAS-G12V = biological target: T2, KRAS-G12V (Homo sapiens, UniProt P01116, G12V); test: as above; format: biochemical; settings: 60 min preincubation, SOS + GTP, read-out: KRAS G12V GNE IC50
T2 construct: N-terminal biotin-acceptor peptide […]
T2 sequence (P01116 with tags, fused parts or gaps isoform P01116-2 G12V): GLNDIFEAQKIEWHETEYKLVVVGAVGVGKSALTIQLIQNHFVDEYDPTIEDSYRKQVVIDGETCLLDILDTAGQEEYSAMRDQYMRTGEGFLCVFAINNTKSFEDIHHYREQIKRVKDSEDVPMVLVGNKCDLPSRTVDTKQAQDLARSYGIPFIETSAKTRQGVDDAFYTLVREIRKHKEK
Source text: as §1, §2, §3, §4, §5

T1 sequence (P01116 with tags, fused parts or gaps isoform P01116-2 G12D): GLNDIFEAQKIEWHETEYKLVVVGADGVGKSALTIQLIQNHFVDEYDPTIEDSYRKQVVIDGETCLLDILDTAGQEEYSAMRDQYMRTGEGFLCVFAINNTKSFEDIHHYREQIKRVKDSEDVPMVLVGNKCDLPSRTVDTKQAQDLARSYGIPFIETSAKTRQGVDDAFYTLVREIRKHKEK

IC50 (KRAS-G12D) [µM] | IC50 (KRAS-G12V) [µM] | Structure (SMILES)
0.0409 | 0.0089 | N#Cc1c(N)sc2c(F)ccc(-c3cc4nc(OC[C@@]56CCCN5C[C@H](F)C6)nc(N5CCCOCC5)c4nc3C(F)(F)F)c12 [Ex. 46, 2-amino-7-fluoro-4-(2-(((2R,7aS)-2-fluorotetrahydro-1H-pyrrolizin-7a(5H)-yl)methoxy)-4-(1,4-oxazepan-4-yl)-6-(trifluoromethyl)pyrido[3,2-d]pyrimidin-7-yl)benzo[b]thiophene-3-carbonitrile]
0.273 | 0.0591 | Cc1cc(N)nc(-c2c(Cl)cc3c(N4CCCSCC4)nc(OC[C@@]45CCCN4C[C@H](F)C5)nc3c2F)c1C(F)(F)F [compound 42, 6-(6-chloro-8-fluoro-2-(((2R,7aS)-2-fluorotetrahydro-1H-pyrrolizin-7a(5H)-yl)methoxy)-4-(1,4-thiazepan-4-yl)quinazolin-7-yl)-4-methyl-5-(trifluoromethyl)pyridin-2-amine]
0.927 | 0.0918 | Cc1cc(N)nc(-c2c(Cl)cc3c(N4CCOCC(F)(F)C4)nc(OC[C@@]45CCCN4C[C@H](F)C5)nc3c2F)c1C(F)(F)F [compound 43, 6-(6-chloro-4-(6,6-difluoro-1,4-oxazepan-4-yl)-8-fluoro-2-(((2R,7aS)-2-fluorotetrahydro-1H-pyrrolizin-7a(5H)-yl)methoxy)quinazolin-7-yl)-4-methyl-5-(trifluoromethyl)pyridin-2-amine]
0.0234 | – | N#Cc1c(N)sc2c(F)ccc(-c3c(Cl)cc4c(N5C6COCC5C6)nc(OC[C@@]56CCCN5C[C@H](F)C6)nc4c3F)c12 [compound 47, 4-(4-(3-oxa-6-azabicyclo[3.1.1]heptan-6-yl)-6-chloro-8-fluoro-2-(((2R,7aS)-2-fluorotetrahydro-1H-pyrrolizin-7a(5H)-yl)methoxy)quinazolin-7-yl)-2-amino-7-fluorobenzo[b]thiophene-3-carbonitrile]
0.0709 | 0.00889 | N#Cc1c(N)sc2c(F)ccc(-c3c(Cl)cc4c(N5CCOCC5)nc(OC[C@@]56CCCN5C[C@H](F)C6)nc4c3F)c12 [compound 48, 2-amino-4-(6-chloro-8-fluoro-2-(((2R,7aS)-2-fluorotetrahydro-1H-pyrrolizin-7a(5H)-yl)methoxy)-4-morpholinoquinazolin-7-yl)-7-fluorobenzo[b]thiophene-3-carbonitrile]
0.477 | 0.16 | C[C@H]1CCOCCN1c1nc(OC[C@@]23CCCN2C[C@H](F)C3)nc2c(F)c(-c3ccc(F)c4sc(N)c(C#N)c34)ccc12 [compound 49, 2-amino-7-fluoro-4-(8-fluoro-2-(((2R,7aS)-2-fluorotetrahydro-1H-pyrrolizin-7a(5H)-yl)methoxy)-4-((S)-5-methyl-1,4-oxazepan-4-yl)quinazolin-7-yl)benzo[b]thiophene-3-carbonitrile]
0.0305 | 0.0076 | C[C@H]1CCOCCN1c1nc(OC[C@@]23CCCN2C[C@H](F)C3)nc2cc(-c3ccc(F)c4sc(N)c(C#N)c34)c(C(F)(F)F)nc12 [compound 50, 2-amino-7-fluoro-4-(2-(((2R,7aS)-2-fluorotetrahydro-1H-pyrrolizin-7a(5H)-yl)methoxy)-4-((S)-5-methyl-1,4-oxazepan-4-yl)-6-(trifluoromethyl)pyrido[3,2-d]pyrimidin-7-yl)benzo[b]thiophene-3-carbonitrile]
0.0237 | 0.00452 | N#Cc1c(N)sc2c(F)ccc(-c3c(C(F)(F)F)cc4c(N5CC6COC(C6)C5)nc(OC[C@@]56CCCN5C[C@H](F)C6)nc4c3F)c12 (stereo partly drawn) [compound 51, 4-(4-((1R,5S)-6-oxa-3-azabicyclo[3.2.1]octan-3-yl)-8-fluoro-2-(((2R,7aS)-2-fluorotetrahydro-1H-pyrrolizin-7a(5H)-yl)methoxy)-6-(trifluoromethyl)quinazo-lin-7-yl)-2-amino-7-fluorobenzo[b]thiophene-3-carbonitrile]
